“And” between values parts separate entries of the source, which are not always exact repeats. Identical values can stand only once. The source made the active and inactive calls.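 The calls were made as follows: active = compounds raising the signal whose fitted half-maximal concentration is at or below their top tested dose (cut at about 25 µM in these data); inconclusive = flat fit at 30 to 70% activity, or a poor fit; inactive = the rest.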 A value given as a limit tells only on which side of the number the result lay.

A word on the AC50: it is the concentration at which the activity in the assay is half-maximal.

In this assay the test system is INS-1E rat beta cells, no cytokines, CellTiter-Glo ATP, 48 h. As to the kind of experiment: cytokine-free beta-cell viability effect – INS-1E rat cells, ATP luminescence, cherry pick, counter-screen for beta-cell apoptosis protection project, dose response (AID 463229).
With `COc1cccc(/C=N/NC(=O)c2ccc(-c3ccccc3)cc2)c1O`, the concentration at half-maximal activity (AC50) is 13.1 µM.
`O=C(N/N=C/c1cc([N+](=O)[O-])ccc1O)c1cccc2ccccc12`: the AC50 was 9.87 µM.
Consider `CCn1cc(C(=O)O)c(=O)c2cc(F)c(N/N=C/c3ccccc3[N+](=O)[O-])cc21`, for which the AC50 is 7.62 µM.
For `COc1ccc(C(NC(C)=O)c2ccc3cccnc3c2O)c(OC)c1` (stereo not given) the value was 4.24 µM; for `CC(=O)NC(C)c1cc(Cl)c2cccnc2c1O` (stereo not given), 10.7 µM; for `c1ccc(N2CCN(c3nc(-c4ccccn4)nc4ccccc34)CC2)cc1`, 14.9 µM.
For `COc1ccc(C(=O)NC(=S)NNC(=O)c2cnccn2)cc1` the value was 5.21 µM; for `CC1=CC(=O)C(C(C)C)=C/C1=N/OS(=O)(=O)c1ccccc1`, 1.42 µM.
For `CCN1c2ccccc2NC2N=C(OC)C(c3ccccc3)C21` (stereo not given) the value was 13.1 µM.
Take `CCCCCCc1ccc(N2C[C@H](Cc3ccccc3)[C@@H](CC(=O)NCc3ccc(OC)cc3)C2=O)cc1`: the concentration at half-maximal activity (AC50) is 13.6 µM.
Then `CCOc1ccc(-n2c(-c3ccccc3)c[n+]3c2CCC3)cc1`, with 1.53 µM; and `C/C(=N\N1C(=O)c2ccccc2NC1c1ccco1)c1ccccc1O` (stereo not given), with 12.5 µM; and `Cc1ccccc1OCCCCn1cnc2ccccc21`, with 7.47 µM.
For `COC(=O)c1ccccc1NC(=O)c1nc(S(=O)(=O)Cc2ccccc2)ncc1Cl` the value was 7.98 µM; for `Cc1c(/C=N/Nc2nc3ccccc3[nH]2)c2ccccc2n1C`, 6.36 µM; for `COc1ccc(NC(=O)/C(Cl)=C(/Cl)S(=O)Cc2ccccc2)cn1` (stereo not given), 2.05 µM.
As for `CC(C)n1cnc2c(NCc3ccccc3)cc(N[C@H](C)CO)cc21`, the AC50 is 13.7 µM.
Then `COc1ccc2c(C(=O)NCc3ccc4c(c3)OCO4)c(-c3ccc(S(C)(=O)=O)cc3)sc2c1`, with 9.16 µM.
Then `CCCCCCCNC1=CC(=O)CC(c2ccccc2)C1` (stereo not given), with 9.84 µM; and `O=[N+]([O-])c1ccc(NC(=S)NCCc2ccc(Cl)cc2)cc1`, with 8.12 µM; and `CCN(CC)S(=O)(=O)c1cccc(NC(=O)Nc2cccc(C(F)(F)F)c2)c1`, with 7.13 µM.
Then `CC1CCC(C(C)C)C(OC(=O)Cn2c(-c3ccc(F)cc3)[n+](C)c3ccccc32)C1` (stereo not given), with 4.49 µM; and `c1ccc(CNc2nc(-c3ccccn3)nc3ccccc23)cc1`, with 7.68 µM.
In the case of `COc1ccc(OC)c(NC(=O)CN(Cc2ccc(F)cc2)C2CCCCC2)c1`, the AC50 was 4.49 µM.
`Cc1cccnc1Nc1nc(-c2ccccn2)cs1`: the AC50 is 2.58 µM.
For `NC(=O)c1c(-c2ccc(Cl)cc2Cl)csc1NC(=O)Cc1ccccc1` the value was 4.08 µM; for `COc1ccc(N=C2S/C(=C\c3ccc(N4CCOCC4)o3)C(=O)N2CCc2c[nH]c3ccccc23)cc1`, 13.8 µM; for `CCCCC(=O)N1C/C=C\C(c2ccc(OC)cc2)N(Cc2ccc(F)cc2)C(=O)[C@H]1Cc1ccccc1` (stereo not given in full), 7.74 µM.
As to `Cc1cc(O)c2c(c1)C(=O)C13C(=C2O)C(=O)[C@H]2[C@@H](O)[C@@H]1[C@H]1[C@H](O)[C@@H]3C(=O)C3=C(O)c4c(O)cc(C)cc4C(=O)C312` (stereo not given in full), the concentration at half-maximal activity (AC50) was 4.68 µM.
For `O=C(NCc1cccnc1)/C(=C\c1ccc(-c2ccc(Br)cc2)o1)S(=O)(=O)c1ccccc1` the value was 4.27 µM.
Then `C=C1C(=O)O[C@@H]2C[C@@H](C)[C@@H]3C=CC(=O)[C@@]3(C)[C@@H](O)[C@H]12`, with 2.02 µM; and `CCC(=O)N1c2ccc(S(=O)(=O)N3CCN(c4ccc([N+](=O)[O-])cc4)CC3)cc2CC1C` (stereo not given), with 6.37 µM.
For `Clc1ccccc1Nc1nnc(-c2ccncc2)s1` the value was 4.64 µM.
With `O=C(CN1CCOCC1)N/N=C/c1c(O)ccc2ccccc12`, the AC50 is 16.1 µM.
For `O=C(N/N=C/c1cc(Br)c(O)c(Br)c1O)c1ccc2c(c1)OCCO2` the value was 8.27 µM; for `CCCCNc1c(-c2cccc(-c3ccc(OC)cc3)c2)nc2ccc(C)cn12`, 7.32 µM.
Consider `Cc1ccc(S(=O)(=O)N2CCN(c3ncnc4ccccc34)CC2)cc1`, for which the half-maximal activity concentration (AC50) was 6.28 µM.
Then `CCCCCCCCCCOC(=O)Cn1c(COc2ccc(OC)cc2)[n+](C)c2ccccc21`, with 4.96 µM and 3.95 µM; and `CCN(CC)S(=O)(=O)c1cc([N+](=O)[O-])ccc1NNC(=O)Nc1ccc(Cl)c(Cl)c1`, with 6.54 µM.
On to `Cc1ccc(Sc2cc(C)nc(-c3ccccn3)n2)cc1`, for which the AC50 was > 26 µM (inactive).
For `Cc1ccc(Cl)cc1N1CCN(C(=O)CSc2nnc3n2C(C)(C)Cc2ccccc2-3)CC1` the value was 7.07 µM; for `Cc1cc(Nc2nc3ccccc3nc2Cl)n(-c2ccc([N+](=O)[O-])cc2)n1`, 12 µM; for `CCCC[n+]1ccn(C2=C([O-])c3ccccc3C(=O)/C2=N\S(=O)(=O)c2ccc(Br)cc2)c1`, 15.2 µM.
For `C#CCOCCOCCOCCNc1nc(N2CCN(C(=O)CCCCCCCCCCNC(=O)[C@H]([C@@H](C)CC)n3cc(CCCCN=C(N)N)nn3)CC2)nc(N2CCN(C(=O)CCCCCCCCCCNC(=O)[C@H](CO)n3cc(CCCCCN)nn3)CC2)n1` the value was 7.67 µM.
Then `C/C(=N\NC(=O)C(C)Oc1ccc([N+](=O)[O-])cc1)c1ccccn1` (stereo not given), with 4.2 µM; and `C=CCn1c(C)c(/C=C/c2cc[n+](C)cc2)c2ccccc21`, with 5.99 µM; and `CCOC(=O)N1CCN(S(=O)(=O)c2ccc(C(=O)NNc3nc4ccc(Cl)cc4s3)cc2)CC1`, with 5.43 µM.
`Cc1cc(/C=N/n2cnnc2)c(C)n1-c1ccc(OCc2ccc(Cl)cc2Cl)cc1`: the AC50 is 1.71 µM.
Then `FC(F)(F)c1cnc(NNC(=S)Nc2ccccc2Cl)c(Cl)c1`, with 7.03 µM.
In the case of `C/C(=N\NC(=O)c1cc(C2CC2)nc2ccccc12)c1ccc(O)cc1O`, the AC50 is 5.61 µM.
Then `O=C(CSC1=NCCS1)Nc1ccnc2ccccc12`, with 12.5 µM; and `COc1cc(NC(=O)c2cc3ccccc3cc2O)c(OC)cc1Cl`, with 4.68 µM; and `CCOc1ccc(-n2c(O)c(/C=N/Nc3nc(C)cc(C)n3)c3ccccc3c2=O)cc1`, with 6.38 µM.
Regarding `C=CCc1cccc(/C=N/NC(=O)c2ccc3nc[nH]c3c2)c1O`, the AC50 is 6.52 µM.
For `CCOc1ccc(OCc2ccc(C(=O)N/N=C(\C)c3ccccn3)cc2)cc1` the value was 5.09 µM.
`C/C(=N\NC(=O)c1cc(-c2cccnc2)nc2ccccc12)c1ccccc1O`: the AC50 is 5.74 µM.
Take `O=C(OCn1ncc(Cl)c(Cl)c1=O)c1ccc(F)cc1`: the half-maximal activity concentration (AC50) was 7.02 µM.
For `C=CC[n+]1c(/C=C2\C=Cc3cc(C)ccc3N2CC)ccc2ccccc21` the value was under 0.195 µM.
For `CC1CCc2c(sc3nc(C(C)(C)C)nc(N4CCN(C(=O)CCl)CC4)c23)C1` (stereo not given) the value was 7.59 µM.
Then `O=[N+]([O-])c1ccc(N=Nc2c(Cl)cc(O)cc2Cl)cc1`, with 2.08 µM.
Turning to `COC(=O)c1cccc(NC(=O)Nc2ccc(Cl)c(Cl)c2)c1`, the half-maximal activity concentration (AC50) was 10.4 µM.
For `O=C1C=C(Nc2ccc(O)cc2)C(=O)c2ccccc21` the value was 13.6 µM; for `CCn1c(C)nc2cc(C(=O)N/N=C/c3cccc(O)c3O)ccc21`, 8.42 µM; for `CCNC(=O)Nc1cc(S(=O)(=O)Nc2ccc(OC)cc2)ccc1N1CCOCC1`, 6.84 µM.
For `O=C1C=C(N2CCCCC2)c2ccccc2C1=O` the value was 10.6 µM; for `CCOC(=O)c1c(NC(=O)c2cc(-c3ccc(Cl)s3)nc3ccccc23)sc(C(N)=O)c1C`, 11.5 µM; for `CC1=NN(c2nc(-c3ccc(C)cc3)cs2)C(=O)C1N=Nc1ccc(C(N)=O)cc1` (stereo not given), 3.53 µM.
Then `C#CCOCCOCCOCCNc1nc(N2CCN(C(=O)CCCCCCCCCCNC(=O)Cn3cc(C[C@@H](C)O)nn3)CC2)nc(N2CCN(C(=O)CCCCCCCCCCNC(=O)[C@@H]([C@H](C)CC)n3cc(CCCCCN)nn3)CC2)n1`, with 7.83 µM; and `CCCCNc1c(-c2ccc(-c3cccc(Cl)c3)cc2)nc2ccccn12`, with 5.83 µM; and `Oc1cccc2ccc(Nc3ccccn3)nc12`, with 2.27 µM.
On to `COc1cc(NC(=O)c2ccc([N+](=O)[O-])o2)ccc1NC(=O)c1cccs1`, for which the half-maximal activity concentration (AC50) was 15.2 µM.
For `O=C(Nc1ccc(Cl)cc1)/C(=C/c1cccc(O)c1)c1nc2ccccc2s1` the value was 4.46 µM; for `O=C(Nc1ccccc1Cl)/C(Cl)=C(\Cl)S(=O)c1ccccc1` (stereo not given), 2.9 µM.
For `Cc1cc(N/N=C/c2c(O)ccc3ccccc23)nc(-c2ccccc2O)n1` the value was 11.7 µM; for `CC1=C(C)/C(=N\OS(=O)(=O)c2ccccc2)C=CC1=O`, 4.13 µM; for `CC(C)C(=O)NC(=S)/C=C1/N(C)c2ccccc2C1(C)C`, 7.7 µM.
Then `Cc1ccc(C[n+]2cccc(-c3ccccc3)c2)c(C)c1`, with 5.1 µM; and `CN1CCN(c2ccc(CNS(=O)(=O)Cc3cccc(C(F)(F)F)c3)cc2)CC1`, with 8.93 µM; and `O=C(Nc1cccc(S(=O)(=O)Nc2ccc(Cl)cc2)c1)c1ccc(Cl)nc1`, with 4.6 µM.
In the case of `O=C(N/N=C/c1cc(Cl)ccc1O)c1ccc(Br)cc1`, the concentration at half-maximal activity (AC50) is 4.07 µM.
For `O=[N+]([O-])c1ccc(-c2nc3ccc([N+](=O)[O-])cc3[nH]2)cc1` the value was 6.93 µM; for `COc1ccc2c(c1)c(/C=N/Nc1nc3ccccc3[nH]1)c(C)n2C`, 14.7 µM; for `Cc1cc(N2CCN(S(=O)(=O)c3ccc(Cl)cc3)CC2)c2ccccc2n1`, 7.4 µM.
Then `CCc1ccc(S(=O)(=O)/N=C2\C=C(Nc3ccc(O)cc3)C(=O)c3ccccc32)cc1`, with 2.21 µM; and `O=C(COc1ccc(Cl)cc1)Nc1ccc(C(=O)NCc2cccnc2)cc1`, with 0.236 µM.
For `CC1=CC2/C=C(\C)CCC(O)C(O)/C=C/C(=O)C23C(=O)NC(CC(C)C)C3C1C` (stereo not given) the value was 7.48 µM; for `O=S(=O)(Nc1cc(Sc2cccc3cccnc23)c(O)c2ccccc12)c1ccc(F)cc1`, 3.9 µM; for `C#CCOCCOCCOCCNc1nc(N2CCN(C(=O)CCCCCCCCCCNC(=O)[C@H]([C@@H](C)CC)n3cc(CCCCN=C(N)N)nn3)CC2)nc(N2CCN(C(=O)CCCCCCCCCCNC(=O)[C@H](CCCCN)n3cc(C)nn3)CC2)n1`, 6.28 µM.
For the compound `CN1/C(=C\C(=S)NC(=O)c2cccc(Br)c2)C(C)(C)c2ccccc21`, the concentration at half-maximal activity (AC50) is 3.93 µM.
Then `CCO[C@H]1OC(C(=O)N2CCN(Cc3ccc4c(c3)OCO4)CC2)=C[C@@H](c2csc3ccccc23)[C@@H]1CCCO`, with 6.01 µM.

Values taken from PubChem BioAssay AID463229 (Broad Institute, 2010).
